According to patent US9815796B2 (Merck Sharp & Dohme Corp., priority 2013, dated 2017):
Like-named read-outs stand apart in the source and are kept apart here.

Legend:
Rhesus PDE2A3 = Rhesus PDE2A3 (Macaca mulatta, UniProt B3VTJ2); test: PDE2 fluorescence polarization (IMAP FP) inhibition assay, rhesus enzyme; type: biochemical, rhesus macaque
Outline: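 IMAP FP (mP from parallel and perpendicular fluorescence against substrate-only control) was read ≥1 h after adding binding reagent. The preceding 60 min room-temperature reaction contained FAM-cAMP (50 nM) and cGMP (1 uM) in pH 7.2 Tris buffer with MgCl2 and DTT. Enzyme was supernatant of sonicated AD293 cells expressing rhesus PDE2A3; compounds were 3-fold titrated, DMSO 1% final.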

human PDE2A1 = human PDE2A1 (Homo sapiens (Human), UniProt O00408); test: IMAP FP PDE selectivity panel, human PDE2A1; type: biochemical
Outline: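 IMAP FP format: substrate 50 nM FAM-cAMP plus 1000 nM cGMP, enzyme (insect-cell GST-tagged human PDE2A1) at ~20% conversion, 60 min reaction at room temperature. Apparent inhibition constants calculated from parallel/perpendicular fluorescence with KM 10,000 nM.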

[1] = Rhesus PDE2, Lab A, read-out: Rhesus PDE2 Ki (nM) - Lab A
[2] = Rhesus PDE2, Lab B, read-out: Rhesus PDE2 Ki (nM) - Lab B
[3] = Human PDE2, Lab B, read-out: Human PDE2 Ki (nM) - Lab B
[4] = Human PDE2, Lab A, read-out: Human PDE2 Ki (nM) - Lab A

Chain of human PDE2A1 (O00408 other isoform, or with tags, fused parts or gaps): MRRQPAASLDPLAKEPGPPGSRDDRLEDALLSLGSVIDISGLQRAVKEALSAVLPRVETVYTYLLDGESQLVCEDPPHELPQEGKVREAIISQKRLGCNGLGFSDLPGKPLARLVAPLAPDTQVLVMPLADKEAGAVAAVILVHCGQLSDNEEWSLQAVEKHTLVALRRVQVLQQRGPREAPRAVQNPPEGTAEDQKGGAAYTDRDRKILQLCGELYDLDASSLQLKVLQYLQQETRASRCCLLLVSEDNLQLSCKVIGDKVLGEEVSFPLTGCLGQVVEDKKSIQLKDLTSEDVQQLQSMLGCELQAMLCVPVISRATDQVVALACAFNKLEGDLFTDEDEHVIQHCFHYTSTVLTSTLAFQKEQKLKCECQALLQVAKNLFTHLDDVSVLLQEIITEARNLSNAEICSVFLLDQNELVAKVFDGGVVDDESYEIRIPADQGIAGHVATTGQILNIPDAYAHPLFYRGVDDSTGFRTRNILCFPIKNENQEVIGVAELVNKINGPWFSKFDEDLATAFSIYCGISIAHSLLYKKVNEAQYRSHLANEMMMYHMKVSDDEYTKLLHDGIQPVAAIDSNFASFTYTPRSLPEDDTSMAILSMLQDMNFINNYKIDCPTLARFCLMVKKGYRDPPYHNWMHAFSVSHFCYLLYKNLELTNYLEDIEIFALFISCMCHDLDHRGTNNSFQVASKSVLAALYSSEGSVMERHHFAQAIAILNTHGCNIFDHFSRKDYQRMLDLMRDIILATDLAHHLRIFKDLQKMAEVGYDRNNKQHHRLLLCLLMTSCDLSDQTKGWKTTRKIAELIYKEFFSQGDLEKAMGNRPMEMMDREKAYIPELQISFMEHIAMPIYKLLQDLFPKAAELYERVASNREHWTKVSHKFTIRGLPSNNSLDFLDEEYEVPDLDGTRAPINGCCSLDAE
Chain of Rhesus PDE2A3 (B3VTJ2 1-941): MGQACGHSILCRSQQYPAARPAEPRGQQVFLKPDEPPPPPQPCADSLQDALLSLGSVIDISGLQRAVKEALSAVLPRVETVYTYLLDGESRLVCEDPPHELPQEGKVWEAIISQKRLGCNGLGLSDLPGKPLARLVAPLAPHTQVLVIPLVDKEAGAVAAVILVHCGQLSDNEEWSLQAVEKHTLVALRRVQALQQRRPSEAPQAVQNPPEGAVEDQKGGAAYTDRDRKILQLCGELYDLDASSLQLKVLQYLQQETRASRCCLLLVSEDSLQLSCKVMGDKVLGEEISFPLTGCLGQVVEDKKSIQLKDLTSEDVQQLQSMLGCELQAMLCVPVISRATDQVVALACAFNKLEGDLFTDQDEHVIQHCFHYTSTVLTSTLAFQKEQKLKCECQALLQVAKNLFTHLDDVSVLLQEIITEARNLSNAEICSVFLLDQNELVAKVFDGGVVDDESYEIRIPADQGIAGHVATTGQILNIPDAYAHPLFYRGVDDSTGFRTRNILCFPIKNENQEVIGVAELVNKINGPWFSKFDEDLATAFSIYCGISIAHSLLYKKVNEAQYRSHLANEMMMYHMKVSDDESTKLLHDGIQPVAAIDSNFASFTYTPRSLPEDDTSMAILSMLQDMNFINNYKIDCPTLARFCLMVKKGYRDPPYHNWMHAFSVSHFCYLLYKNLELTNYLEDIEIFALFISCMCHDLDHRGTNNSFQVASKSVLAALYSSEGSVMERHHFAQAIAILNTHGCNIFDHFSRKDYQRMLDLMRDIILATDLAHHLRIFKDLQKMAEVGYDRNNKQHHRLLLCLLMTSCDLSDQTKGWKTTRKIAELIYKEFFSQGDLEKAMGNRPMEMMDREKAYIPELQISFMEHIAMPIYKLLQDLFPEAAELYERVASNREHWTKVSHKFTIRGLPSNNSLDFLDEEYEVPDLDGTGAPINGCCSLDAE

SMILES | Ki (Rhesus PDE2A3; [1]) | Ki (Rhesus PDE2A3; [2]) | Ki (human PDE2A1; [3]) | Ki (human PDE2A1; [4])
O=C(NC(c1ccc(F)cc1)c1ccc(C(F)(F)F)cc1)c1cc(=O)[nH]c(-c2ccccc2)n1 (stereo not drawn) [Example 367, N-{(4-fluorophenyl)[4-(trifluoromethyl)phenyl]methyl}-6-oxo-2-phenyl-1,6-dihydropyrimidine-4-carboxamide] | 74 nM | 314 nM | 262 nM | –
CC[C@@H](NC(=O)c1cc(=O)[nH]c(Cc2ccc(OC)cc2)n1)c1ccc(SC(F)(F)F)c(F)c1 [Example 477, N-[(1R)-1-{3-fluoro-4-[(trifluoromethyl)sulfanyl]phenyl}propyl]-2-(4-methoxybenzyl)-6-oxo-1,6-dihydropyrimidine-4-carboxamide] | – | 1.5 nM | 1.7 nM | –
COc1ccc(C(C)(C)c2nc(C(=O)N[C@@H](c3ccc(SC(F)(F)F)cc3)C(C)C)cc(=O)[nH]2)cc1 [Example 490, 2-[1-(4-methoxyphenyl)-1-methylethyl]-N-[(1R)-2-methyl-1-{4-[(trifluoromethyl)sulfanyl]phenyl}propyl]-6-oxo-1,6-dihydropyrimidine-4-carboxamide] | – | 43 nM | 31 nM | –
CC(C)(NC(=O)c1cc(=O)[nH]c(-c2ccccc2)n1)c1ccccc1Br [Example 373, N-[1-(2-bromophenyl)-1-methylethyl]-6-oxo-2-phenyl-1,6-dihydropyrimidine-4-carboxamide] | 155 nM | 225 nM | 183 nM | –
O=C(N[C@@H](c1ccc(SC(F)(F)F)cc1)C1CC1)c1cc(=O)[nH]c(-c2ccccc2)n1 [Example 178, N-[(R)-cyclopropyl{4-[(trifluoromethyl)sulfanyl]phenyl}methyl]-6-oxo-2-phenyl-1,6-dihydropyrimidine-4-carboxamide] | 3.3 nM | – | – | 2.4 nM
CC(C)[C@@H](NC(=O)c1cc(=O)[nH]c(-c2ccccc2)n1)c1ccc(OC(F)(F)F)cc1 [Example 166, N-{(1R)-2-methyl-1-[4-(trifluoromethoxy)phenyl]propyl}-6-oxo-2-phenyl-1,6-dihydropyrimidine-4-carboxamide] | 3.3 nM | – | – | 2.1 nM
CC(NC(=O)c1cc(=O)[nH]c(-c2ccccc2)n1)c1ccc(C(F)(F)F)cn1 (stereo not drawn) [Example 149, 6-oxo-2-phenyl-N-{1-[5-(trifluoromethyl)pyridin-2-yl]ethyl}-1,6-dihydropyrimidine-4-carboxamide] | 204 nM | – | – | 117 nM
CC(NC(=O)c1cc(=O)[nH]c(-c2ccccc2)n1)c1ccc(-n2cccn2)cc1 (stereo not drawn) [Example 350, 6-oxo-2-phenyl-N-{1-[4-(1H-pyrazol-1-yl)phenyl]ethyl}-1,6-dihydropyrimidine-4-carboxamide] | 21 nM | – | 39 nM | –
COc1ccc(Cc2nc(C(=O)N[C@@H](c3ccc(SC(F)(F)F)c(F)c3)C(C)C)cc(=O)[nH]2)cc1F [Example 512, 2-(3-fluoro-4-methoxybenzyl)-N-[(1R)-1-{3-fluoro-4-[(trifluoromethyl)sulfanyl]phenyl}-2-methylpropyl]-6-oxo-1,6-dihydropyrimidine-4-carboxamide] | – | 1.5 nM | 1.6 nM | –
Cc1nc(C(=O)NC2(c3ccc(C(F)(F)F)cc3)CC2)cc(=O)[nH]1 [Example 1, 2-Methyl-6-oxo-N-{1-[4-(trifluoromethyl)phenyl]cyclopropyl}-1,6-dihydropyrimidine-4-carboxamide] | 21 nM | 28 nM | 36 nM | 16 nM
COCc1nc(C(=O)N[C@@H](c2ccc(C(F)(F)F)cc2)C2CC2)cc(=O)[nH]1 [Example 118, N-{(R)-cyclopropyl[4-(trifluoromethyl)phenyl]methyl}-2-(methoxymethyl)-6-oxo-1,6-dihydropyrimidine-4-carboxamide] | 76 nM | – | – | 18 nM
Cc1nc(C(=O)NC(C)(c2ccc(S(F)(F)(F)(F)F)cc2)C(C)C)cc(=O)[nH]1 (single isomer, unassigned) [Example 663, (R)- or (S)-N-{1,2-dimethyl-1-[4-(pentafluoro-λ^6-sulfanyl)phenyl]propyl}-2-methyl-6-oxo-1,6-dihydropyrimidine-4-carhoxamide] | – | 30 nM | 34 nM | –
Cc1nc(C(=O)N[C@@H](c2ccc(S(F)(F)(F)(F)F)cc2)C2(C)CC2)cc(=O)[nH]1 [Example 424, 2-methyl-N-{(R)-(1-methylcyclopropyl)[4-(pentafluoro-λ^6-sulfanyl)phenyl]methyl}-6-oxo-1,6-dihydropyrimidine-4-carboxamide] | – | 7.2 nM | 9.2 nM | –
Cc1nc(C(=O)NC2(c3ccc(SC(F)(F)F)cc3)CCC2)cc(=O)[nH]1 [Example 49, 2-methyl-6-oxo-N-(1-{4-[(trifluoromethyl)sulfanyl]phenyl}cyclobutyl)-1,6-dihydropyrimidine-4-carboxamide] | 79 nM | – | – | 45 nM
CC[C@@H](NC(=O)c1cc(=O)[nH]c(Cc2ccc(OC)cc2)n1)c1ccc(SC(F)(F)F)cc1 [Example 476, 2-(4-methoxybenzyl)-6-oxo-N-[(1R)-1-{4-[(trifluoromethyl)sulfanyl]phenyl}propyl]-1,6-dihydropyrimidine-4-carboxamide] | – | 1.4 nM | 1.8 nM | –

The remaining lines, values ahead:

Ki (Rhesus PDE2A3; [1]) | Ki (Rhesus PDE2A3; [2]) | Ki (human PDE2A1; [3]) | Ki (human PDE2A1; [4]) | SMILES
5 nM | 4.8 nM | 4.7 nM | – | CC(C)[C@@H](NC(=O)c1cc(=O)[nH]c(-c2ncccn2)n1)c1ccc(OC(F)(F)F)c(F)c1 [Example 74, N-{(1R)-1-[3-fluoro-4-(trifluoromethoxy)phenyl]-2-methylpropyl}-6-oxo-1,6-dihydro-2,2′-bipyrimidine-4-carboxamide]
– | 1.3 nM | 1.4 nM | – | CC(C)(C)[C@@H](NC(=O)c1cc(=O)[nH]c(C2CC2)n1)c1ccc(C2CC2)cc1 [Example 447, 2-cyclopropyl-N-[(1R)-1-(4-cyclopropylphenyl)-2,2-dimethylpropyl]-6-oxo-1,6-dihydropyrimidine-4-carboxamide]
– | 2.3 nM | 2.2 nM | – | COc1ccc(Cc2nc(C(=O)N[C@@H](c3ccc(OC(F)(F)F)c(F)c3)C3CC3)cc(=O)[nH]2)cc1F [Example 521, N-{(R)-cyclopropyl[3-fluoro-4-(trifluoromethoxy)phenyl]methyl}-2-(3-fluoro-4-methoxybenzyl)-6-oxo-1,6-dihydropyrimidine-4-carboxamide]
304 nM | – | – | 278 nM | Cc1nc(C(=O)NC(C)(C)c2ccc(OC(F)(F)F)cc2)cc(=O)[nH]1 [Example 273, 2-methyl-N-{1-methyl-1-[4-(trifluoromethoxy)phenyl]ethyl}-1,6-oxo-1,6-dihydropyrimidine-4-carboxamide]
– | 0.6 nM | 0.69 nM | – | COc1ccc(Cc2nc(C(=O)N[C@@H](c3ccc(OC(F)(F)F)c(F)c3)C(C)(C)C)cc(=O)[nH]2)cc1 [Example 464, N-{(1R)-1-[3-fluoro-4-(trifluoromethoxy)phenyl]-2,2-dimethylpropyl}-2-(4-methoxybenzyl)-6-oxo-1,6-dihydropyrimidine-4-carboxamide]
7.3 nM | – | – | 3 nM | O=C(NC1(c2ccc(C(F)(F)F)c(F)c2)CC1)c1cc(=O)[nH]c(C2CC2)n1 [Example 202, 2-cyclopropyl-N-{1-[3-fluoro-4-(trifluoromethyl)phenyl]cyclopropyl}-6-oxo-1,6-dihydropyrimidine-4-carboxamide]
– | 1.1 nM | 0.78 nM | – | CC(C)(C)[C@@H](NC(=O)c1cc(=O)[nH]c(C2CC2)n1)c1ccc(C2CC2)c(F)c1 [Example 435, 2-cyclopropyl-N-[(1R)-1-(4-cyclopropyl-3-fluorophenyl)-2,2-dimethylpropyl]-6-oxo-1,6-dihydropyrimidine-4-carboxamide]
0.65 nM | 0.85 nM | 0.79 nM | – | CC(C)(C)[C@@H](NC(=O)c1cc(=O)[nH]c(C2CC2)n1)c1ccc(C(F)(F)F)cc1 [Example 262, 2-cyclopropyl-N-{(1R)-2,2-dimethyl-1-[4-(trifluoromethyl)phenyl]propyl}-6-oxo-1,6-dihydropyrimidine-4-carboxamide]
– | 1.2 nM | 1.2 nM | – | CC(C)(C)[C@@H](NC(=O)c1cc(=O)[nH]c(C2CC2)n1)c1ccc(OC(F)(F)F)c(F)c1 [Example 437, 2-cyclopropyl-N-{(1R)-1-[3-fluoro-4-(trifluoromethoxy)phenyl]-2,2-dimethylpropyl}-6-oxo-1,6-dihydropyrimidine-4-carboxamide]
14 nM | – | – | 9 nM | CC(C)(NC(=O)c1cc(=O)[nH]c(-c2ccccc2)n1)c1ccc(C(F)(F)F)c(F)c1 [Example 158, N-{1-[3-fluoro-4-(trifluoromethyl)phenyl]-1-methylethyl}-6-oxo-2-phenyl-1,6-dihydropyrimidine-4-carboxamide]
– | 0.68 nM | 0.64 nM | – | COc1ccc(Cc2nc(C(=O)N[C@@H](c3ccc(C(F)(F)F)cc3)C(C)(C)C)cc(=O)[nH]2)cc1F [Example 457, N-{(1R)-2,2-dimethyl-1-[4-(trifluoromethyl)phenyl]propyl}-2-(3-fluoro-4-methoxybenzyl)-6-oxo-1,6-dihydropyrimidine-4-carboxamide]
96 nM | – | – | 59 nM | CC(C)(NC(=O)c1cc(=O)[nH]c(C2CC2)n1)c1ccc(OC(F)(F)F)c(F)c1 [Example 198]
80 nM | – | 42 nM | ~13 nM | COCc1nc(C(=O)N[C@@H](c2ccc(OC(F)(F)F)c(F)c2)C2CC2)cc(=O)[nH]1 [Example 117, N-{(R)-cyclopropyl[3-fluoro-4-(trifluoromethoxy)phenyl]methyl}-2-(methoxymethyl)-6-oxo-1,6-dihydropyrimidine-4-carboxamide]
